Measurements published in patent US9808455B2.

Test system: extra cellular levels of acetylcholine in the prefrontal cortex
Assay: extracellular acetylcholine levels in the prefrontal cortex, preclinical studies in rats
Type: in vivo
From the text: At a mechanistic level, pharmacodynamic interactions between an acetylcholinesterase inhibitor and a 5HT6 receptor antagonist are feasible. […] Although the underlying mechanism is still unknown, it is likely due to increases in the release of acetylcholine from cholinergic neurons, On the other hand, donepezil increases the extracellular levels of acetylcholine by inhibiting the acetylcholinesterase to reduce the degradation of acetylcholine.

O=S(=O)(c1ccccc1)c1cnc2c(N3CCNCC3)cccc2c1
extra cellular levels of acetylcholine in the prefrontal cortex: small increase
